# Test results published in ChEMBL document CHEMBL3885861, “Open TG-GATES”.
# Organism: Rattus norvegicus
# Test: Open TG-GATES - Regimen: Single
# Format: toxicity, organism-based, Sprague-Dawley
# Set-up: regimen Single, gender Male, age 6 weeks
# Conditions: in vivo, po, 0 mg/kg, route gavage, dose level Control; for APTT / Bas / Eos / Fbg / Hb / Ht / Lym / MCH / MCHC / MCV / Mono / Neu / PT / Plat / RBC / Ret / WBC: tissue Blood; for KIDNEY_L / KIDNEY_R / KIDNEY_TOTAL: tissue Kidney; for LIVER: tissue Liver; for A/G / ALP / ALT / AST / BUN / CRE / Ca / Cl / DBIL / GLC / IP / K / LDH / Na / PL / RALB / TBIL / TC / TG / TP / gamma-GTP: tissue Plasma
structure (smiles),measurement,setting,value
CCCNC(=O)NS(=O)(=O)c1ccc(Cl)cc1 [CHLORPROPAMIDE],TERMINAL_BW,3 h,199.1 g
same,APTT,3 h,16.5 s
same,Bas,3 h,0.4%
same,Eos,3 h,1%
same,Fbg,3 h,290 mg/dL
same,Hb,3 h,13.3 g/dL
same,Ht,3 h,40.3%
same,Lym,3 h,76.2%
same,MCH,3 h,21.1 pg
same,MCHC,3 h,32.9%
same,MCV,3 h,64.1 fL
same,Mono,3 h,3.4%
same,Neu,3 h,17.8%
same,PT,3 h,15.6 s
same,Plat,3 h,118.9 x10_4/uL
same,RBC,3 h,629.8 x10_4/ul
same,Ret,3 h,8.9%
same,WBC,3 h,85.4 x10_2/uL
same,KIDNEY_L,3 h,0.9 g
same,KIDNEY_R,3 h,0.9 g
same,KIDNEY_TOTAL,3 h,1.8 g
same,LIVER,3 h,8.8 g
same,A/G,3 h,0.9
same,ALP,3 h,1444 IU/L
same,ALT,3 h,43.6 IU/L
same,AST,3 h,75.8 IU/L
same,BUN,3 h,10.4 mg/dL
same,CRE,3 h,0.2 mg/dL
same,Ca,3 h,10.9 mg/dL
same,Cl,3 h,106 meq/L
same,DBIL,3 h,0.01 mg/dL
same,GLC,3 h,176.6 mg/dL
same,IP,3 h,8.9 mg/dL
same,K,3 h,4.3 meq/L
same,LDH,3 h,89 IU/L
same,Na,3 h,142.2 meq/L
same,PL,3 h,137.8 mg/dL
same,RALB,3 h,2.5 g/dL
same,TBIL,3 h,0.04 mg/dL
same,TC,3 h,80.2 mg/dL
same,TG,3 h,53.8 mg/dL
same,TP,3 h,5.4 g/dL
same,gamma-GTP,3 h,1.4 IU/L
same,TERMINAL_BW,6 h,194.7 g
same,APTT,6 h,18.3 s
same,Bas,6 h,0.2%
same,Eos,6 h,1%
same,Fbg,6 h,308.8 mg/dL
same,Hb,6 h,13.2 g/dL
same,Ht,6 h,40.5%
same,Lym,6 h,71.2%
same,MCH,6 h,21 pg
same,MCHC,6 h,32.6%
same,MCV,6 h,64.3 fL
same,Mono,6 h,3%
same,Neu,6 h,23.8%
same,PT,6 h,15.4 s
same,Plat,6 h,108.8 x10_4/uL
same,RBC,6 h,630.6 x10_4/ul
same,Ret,6 h,9.2%
same,WBC,6 h,85.6 x10_2/uL
same,KIDNEY_L,6 h,0.9 g
same,KIDNEY_R,6 h,0.9 g
same,KIDNEY_TOTAL,6 h,1.7 g
same,LIVER,6 h,8.2 g
same,A/G,6 h,0.9
same,ALP,6 h,1385.6 IU/L
same,ALT,6 h,42.4 IU/L
same,AST,6 h,74.4 IU/L
same,BUN,6 h,9.4 mg/dL
same,CRE,6 h,0.2 mg/dL
same,Ca,6 h,10.7 mg/dL
same,Cl,6 h,106 meq/L
same,DBIL,6 h,0.01 mg/dL
same,GLC,6 h,174 mg/dL
same,IP,6 h,9.8 mg/dL
same,K,6 h,4.2 meq/L
same,LDH,6 h,63.6 IU/L
same,Na,6 h,143 meq/L
same,PL,6 h,153.4 mg/dL
same,RALB,6 h,2.5 g/dL
same,TBIL,6 h,0.046 mg/dL
same,TC,6 h,90.6 mg/dL
same,TG,6 h,50.6 mg/dL
same,TP,6 h,5.4 g/dL
same,gamma-GTP,6 h,1 IU/L
same,TERMINAL_BW,9 h,194.8 g
same,APTT,9 h,18.5 s
same,Bas,9 h,0%
same,Eos,9 h,0.8%
same,Fbg,9 h,294.6 mg/dL
same,Hb,9 h,12.9 g/dL
same,Ht,9 h,39.6%
same,Lym,9 h,74.4%
same,MCH,9 h,21.3 pg
same,MCHC,9 h,32.8%
same,MCV,9 h,65.1 fL
same,Mono,9 h,2.2%
same,Neu,9 h,21%
same,PT,9 h,15.4 s
same,Plat,9 h,119.1 x10_4/uL
same,RBC,9 h,607.8 x10_4/ul
same,Ret,9 h,9.1%
same,WBC,9 h,91.1 x10_2/uL
same,KIDNEY_L,9 h,0.9 g
same,KIDNEY_R,9 h,0.9 g
same,KIDNEY_TOTAL,9 h,1.8 g
same,LIVER,9 h,7.6 g
same,A/G,9 h,0.9
same,ALP,9 h,1410 IU/L
same,ALT,9 h,42 IU/L
same,AST,9 h,74.6 IU/L
same,BUN,9 h,8.4 mg/dL
same,CRE,9 h,0.2 mg/dL
same,Ca,9 h,10.6 mg/dL
same,Cl,9 h,106.8 meq/L
same,DBIL,9 h,0.006 mg/dL
same,GLC,9 h,165.4 mg/dL
same,IP,9 h,10 mg/dL
same,K,9 h,3.9 meq/L
same,LDH,9 h,63.6 IU/L
same,Na,9 h,142.8 meq/L
same,PL,9 h,136.6 mg/dL
same,RALB,9 h,2.5 g/dL
same,TBIL,9 h,0.052 mg/dL
same,TC,9 h,84.4 mg/dL
same,TG,9 h,41.4 mg/dL
same,TP,9 h,5.4 g/dL
same,gamma-GTP,9 h,1 IU/L
same,TERMINAL_BW,24 h,211.4 g
same,APTT,24 h,16.9 s
same,Bas,24 h,0.2%
same,Eos,24 h,0.8%
same,Fbg,24 h,277.8 mg/dL
same,Hb,24 h,13 g/dL
same,Ht,24 h,40.6%
same,Lym,24 h,80%
same,MCH,24 h,21.7 pg
same,MCHC,24 h,32.2%
same,MCV,24 h,67.3 fL
same,Mono,24 h,2.8%
same,Neu,24 h,15%
same,PT,24 h,15.5 s
same,Plat,24 h,117.6 x10_4/uL
same,RBC,24 h,602.6 x10_4/ul
same,Ret,24 h,9.2%
same,WBC,24 h,102.7 x10_2/uL
same,KIDNEY_L,24 h,0.9 g
same,KIDNEY_R,24 h,0.9 g
same,KIDNEY_TOTAL,24 h,1.9 g
same,LIVER,24 h,10.1 g
same,A/G,24 h,0.8
same,ALP,24 h,1569 IU/L
same,ALT,24 h,44.8 IU/L
same,AST,24 h,71.8 IU/L
same,BUN,24 h,14.6 mg/dL
same,CRE,24 h,0.2 mg/dL
same,Ca,24 h,10.9 mg/dL
same,Cl,24 h,105.4 meq/L
same,DBIL,24 h,0.012 mg/dL
same,GLC,24 h,187 mg/dL
same,IP,24 h,8.5 mg/dL
same,K,24 h,4.2 meq/L
same,LDH,24 h,79.4 IU/L
same,Na,24 h,142.6 meq/L
same,PL,24 h,154 mg/dL
same,RALB,24 h,2.6 g/dL
same,TBIL,24 h,0.034 mg/dL
same,TC,24 h,82.6 mg/dL
same,TG,24 h,108.6 mg/dL
same,TP,24 h,5.6 g/dL
same,gamma-GTP,24 h,1 IU/L
